Source: US20240343706A1, “PIPERIDINE-2,6-DIONE DERIVATIVES WHICH BIND TO CEREBLON, AND METHODS OF USE THEREOF” (Captor Therapeutics S.A., priority 2019, published 2024)
pEC50, pKi: −log10 of the molar value.

How the values were obtained:
IKZF3 = IKZF3 degradation assay, H929 cell line (western blot densitometry); format: cell-based; settings: H929 cells; for % of protein reduction based on densitometry values, IKZF3 (24 H): summary Table 10, 10 and 20 μM
IKZF1 = IKZF1 degradation assay, H929 cell line (western blot densitometry); format: cell-based; settings: H929 cells; for % of protein reduction based on densitometry values, IKZF 1 (24 H): summary Table 10, 20 μM (some compounds 10 and 20 μM)
Source text: (§1) After primary and secondary Ab staining, the membranes were washed and signals developed. The densitometry analysis was implemented to obtain the numeric values used later in the protein level evaluation process.

[1] = target: BRD4-compound-CRBN/DDB1 ternary complex (Homo sapiens, UniProt O60885+Q96SW2); experiment: BRD4-compound-CRBN/DDB1 ternary complex formation, AlphaLISA homogenous assay; format: biochemical; settings: for pEC50: 100 nM His-CRBN/DDB1, 20 nM BRD4, N = 3, read-out: TF50 (compound concentration which mediate the half of maximal response observed for Ternary Complex); for Normalized AUC to dBET1: area under curve 1.63-2500 nM
Protocol: Biotinylated BRD4 and His-CRBN/DDB1 complex preparations were centrifugated to remove large aggregates (18000 rcf, 4° C., 5 min). Supernatant was collected and protein concentration was determined spectrophotometrically. The AlphaLISA bead-Protein mixtures were prepared: CRBN-acceptor bead (40 μg/ml Anti-6×His beads, 200 nM His-CRBN/DDB1 in PBS pH 7.4 supplemented with 0.1% Tween-20) and BRD4-donor bead (40 μg/ml Streptavidin beads, 40 nM BRD4 in PBS pH 7.4 supplemented with 0.1% Tween-20 and 2 mM DTT). Bead mixes were incubated in dark for 30 minutes at room temperature.
CRBN-acceptor bead mix and BRD4-donor bead mix were combined and dispensed into plate with compounds and DMSO only (10 μl of master mix per well). Final sample composition: 20 μg/ml Anti-6×His beads, 20 μg/ml Stretavidin beads, 100 nM His-CRBN/DDB1, 20 nM BRD4, 2% DMSO, 0.1% Tween-20, 1 mM DTT in PBS pH 7.4, +/− compound. Plate was sealed and covered to protect against light. Sample was mixed using Vibroturbulator. Subsequently, solutions in the plate was centrifugated and incubated in the dark for 30 minutes at 25° C. The plate seal was removed and sample luminescence was determined using Perkin Elmer Enspire plate reader. Readouts were assigned to certain compound concentration. Solutions without compound were utilized to determine background response (an average value) which subsequently was subtracted from raw data collected for compound mixtures.

[2] = target: CRBN-DDB1 protein complex (Homo sapiens, UniProt Q96SW2); experiment: Fluorescence polarization (FP) assay, displacement of Cy5-labelled thalidomide; settings: 25 nM CRBN-DDB1, 5 nM Cy5-labelled thalidomide, read-out: CRBN binding Ki
Protocol: CRBN-DDB1 protein complex was mixed with Cy5-labelled thalidomide and a compound to be tested (the “test compound”). […] The test solution was added to a 384-well assay plate.
The plate was spun-down (1 min, 1000 rpm, 22° C.) and then shaken using a VibroTurbulator for 10 min at room temperature (20-25° C.), with the frequency set to level 3. The assay plate with protein and the tracer was incubated for 60 min at room temperature (20-25° C.) prior to read-out with a plate reader.
The FP experiment was carried out with various concentrations of the test compounds in order to measure Ki values.

BRD4 = BRD4 (Homo sapiens, UniProt O60885); experiment: BRD4 degradation assay, H929 cell line (Simple Western); settings: H929 cells, 6 h
SALL4 = SALL4 degradation assay, Kelly cell line (western blot densitometry); format: cell-based; settings: Kelly cells; for % of protein reduction based on densitometry values, SALL4 (24 H): summary Table 10, 20 μM (some compounds 10 and 20 μM); for % of SALL4 protein reduction, based on densitometry values: 24 h
Source text: as §1

CK1α = CK1α degradation assay, Kelly cell line (western blot densitometry); format: cell-based; settings: Kelly cells; for % of protein reduction based on densitometry values, CK1α (24 H): summary Table 10, 20 μM (some compounds 10 and 20 μM); for % of CK1α protein reduction, based on densitometry values: 24 h
Source text: as §1

SMILES | pEC50 [1] | Normalized AUC to dBET1 [1] | pKi [2] | % of IKZF3 protein reduction based on densitometry values, IKZF3 Band I (IKZF3; 0.1 μM, 6 h) | % of IKZF3 protein reduction based on densitometry values, IKZF3 Band II (IKZF3; 0.1 μM, 6 h) | % of IKZF3 protein reduction based on densitometry values, IKZF3 Band I (IKZF3; 1 μM, 6 h) | % of IKZF3 protein reduction based on densitometry values, IKZF3 Band II (IKZF3; 1 μM, 6 h) | % of IKZF3 protein reduction based on densitometry values, IKZF3 Band I (IKZF3; 10 μM, 6 h) | % of IKZF3 protein reduction based on densitometry values, IKZF3 Band II (IKZF3; 10 μM, 6 h) | % of IKZF1 α protein reduction based on densitometry values (IKZF1; 0.1 μM, 6 h) | % of IKZF1 α protein reduction based on densitometry values (IKZF1; 1 μM, 6 h) | % of IKZF1 α protein reduction based on densitometry values (IKZF1; 10 μM, 6 h) | % of IKZF3 protein reduction based on densitometry values, IKZF3 Band I (IKZF3; 10 μM, 24 h) | % of IKZF3 protein reduction based on densitometry values, IKZF3 Band II (IKZF3; 10 μM, 24 h) | % of IKZF3 protein reduction based on densitometry values, IKZF3 Band I (IKZF3; 20 μM, 24 h) | % of IKZF3 protein reduction based on densitometry values, IKZF3 Band II (IKZF3; 20 μM, 24 h) | % of protein reduction based on densitometry values, IKZF3 (24 H) (IKZF3) | % of protein reduction based on densitometry values, IKZF 1 (24 H) (IKZF1) | % of protein reduction based on densitometry values, SALL4 (24 H) (SALL4) | % of protein reduction based on densitometry values, CK1α (24 H) (CK1α) | also measured
Cc1nc2c(C(=O)NC3CCC(=O)NC3=O)cccc2[nH]1 (centres unmarked) [Compound 15, N-(2,6-dioxopiperidin-3-yl)-2-methyl-1H-benzo[d]imidazole-4-carboxamide] | – | – | > 6.00 | – | – | – | – | – | – | – | – | – | ≤25% (≤25% for 0-25% of IKZF3 protein reduction) | ≤25% (≤25% for 0-25% of IKZF3 protein reduction) | ≤25% (≤25% for 0-25% of IKZF3 protein reduction) | ≤25% (≤25% for 0-25% of IKZF3 protein reduction) | ≤25% (≤25% for 0-25% of IKZF3 protein reduction) | ≤25% (≤25% for 0-25% of IKZF1 protein reduction) | ≤25% (≤25% for 0-25% of SALL4 protein reduction) | ≤25% (≤25% for 0-25% of CK1a protein reduction) | –
Cc1sc2c(c1C)C(c1ccc(Cl)cc1)=N[C@@H](CC(=O)NCCCCCCCCNC(=O)CCc1nc3c(C(=O)NC4CCC(=O)NC4=O)cccc3[nH]1)c1nnc(C)n1-2 (stereo partly drawn) [Compound 64, 2-(3-((8-(2-((S)-4-(4-chlorophenyl)-2,3,9-trimethyl-6H-thieno[3,2-f][1,2,4]triazolo[4,3-a][1,4]diazepin-6-yl)acetamido)octyl)amino)-3-oxopropyl)-N-(2,6-dioxopiperidin-3-yl)-1H-benzo[d]imidazole-7-carboxamide] | 7.15 | 1.45 | 5.00 to 6.00 | ≤25% (≤25% for 0-25% of IKZF3 protein reduction) | ≤25% (≤25% for 0-25% of IKZF3 protein reduction) | >25% (>25% for 26-74% of IKZF3 protein reduction) | ≤25% (≤25% for 0-25% of IKZF3 protein reduction) | ≤25% (≤25% for 0-25% of IKZF3 protein reduction) | ≤25% (≤25% for 0-25% of IKZF3 protein reduction) | ≤25% (≤25% for 0-25% of IKZF1 protein reduction) | ≤25% (≤25% for 0-25% of IKZF1 protein reduction) | ≤25% (≤25% for 0-25% of IKZF1 protein reduction) | – | – | – | – | – | – | – | – | BRD4 degradation (in words) (BRD4): can degrade BRD4
O=C1CCC(NC(=O)c2cccc3cnsc23)C(=O)N1 (centres unmarked) [Compound 50, N-(2,6-dioxopiperidin-3-yl)benzo[d]isothiazole-7-carboxamide] | – | – | 5.00 to 6.00 | – | – | – | – | – | – | – | – | – | ≤25% (≤25% for 0-25% of IKZF3 protein reduction) | ≤25% (≤25% for 0-25% of IKZF3 protein reduction) | ≤25% (≤25% for 0-25% of IKZF3 protein reduction) | ≤25% (≤25% for 0-25% of IKZF3 protein reduction) | ≤25% (≤25% for 0-25% of IKZF3 protein reduction) | ≤25% (≤25% for 0-25% of IKZF1 protein reduction) | ≤25% (≤25% for 0-25% of SALL4 protein reduction) | ≤25% (≤25% for 0-25% of CK1a protein reduction) | % of IKZF1 α protein reduction based on densitometry values (IKZF1; 10 μM, 24 h): ≤25% (≤25% for 0-25% of IKZF1 protein reduction); % of IKZF1 α protein reduction based on densitometry values (IKZF1; 20 μM, 24 h): ≤25% (≤25% for 0-25% of IKZF1 protein reduction); % of SALL4 protein reduction, based on densitometry values (SALL4; 10 μM): ≤25% (≤25% for 0-25% of SALL4 protein reduction); % of SALL4 protein reduction, based on densitometry values (SALL4; 20 μM): ≤25% (≤25% for 0-25% of SALL4 protein reduction); % of CK1α protein reduction, based on densitometry values (CK1α; 10 μM): ≤25% (≤25% for 0-25% of CK1a protein reduction); % of CK1α protein reduction, based on densitometry values (CK1α; 20 μM): ≤25% (≤25% for 0-25% of CK1a protein reduction)

Continued, in another order:

pEC50 [1] | Normalized AUC to dBET1 [1] | pKi [2] | SMILES | % of IKZF3 protein reduction based on densitometry values, IKZF3 Band I (IKZF3; 0.1 μM, 6 h) | % of IKZF3 protein reduction based on densitometry values, IKZF3 Band II (IKZF3; 0.1 μM, 6 h) | % of IKZF3 protein reduction based on densitometry values, IKZF3 Band I (IKZF3; 1 μM, 6 h) | % of IKZF3 protein reduction based on densitometry values, IKZF3 Band II (IKZF3; 1 μM, 6 h) | % of IKZF3 protein reduction based on densitometry values, IKZF3 Band I (IKZF3; 10 μM, 6 h) | % of IKZF3 protein reduction based on densitometry values, IKZF3 Band II (IKZF3; 10 μM, 6 h) | % of IKZF1 α protein reduction based on densitometry values (IKZF1; 0.1 μM, 6 h) | % of IKZF1 α protein reduction based on densitometry values (IKZF1; 1 μM, 6 h) | % of IKZF1 α protein reduction based on densitometry values (IKZF1; 10 μM, 6 h) | % of IKZF3 protein reduction based on densitometry values, IKZF3 Band I (IKZF3; 10 μM, 24 h) | % of IKZF3 protein reduction based on densitometry values, IKZF3 Band II (IKZF3; 10 μM, 24 h) | % of IKZF3 protein reduction based on densitometry values, IKZF3 Band I (IKZF3; 20 μM, 24 h) | % of IKZF3 protein reduction based on densitometry values, IKZF3 Band II (IKZF3; 20 μM, 24 h) | % of protein reduction based on densitometry values, IKZF3 (24 H) (IKZF3) | % of protein reduction based on densitometry values, IKZF 1 (24 H) (IKZF1) | % of protein reduction based on densitometry values, SALL4 (24 H) (SALL4) | % of protein reduction based on densitometry values, CK1α (24 H) (CK1α) | also measured
7.38 | 1.53 | > 6.00 | Cc1nc2c(C(=O)NC3CCC(=O)NC3=O)cc(OCC(=O)NCCCCCCCCNC(=O)C[C@@H]3N=C(c4ccc(Cl)cc4)c4c(sc(C)c4C)-n4c(C)nnc43)cc2[nH]1 (stereo partly drawn) [Compound 66, 5-(2-((8-(2-((S)-4-(4-chlorophenyl)-2,3,9-trimethyl-6H-thieno[3,2-f][1,2,4]triazolo[4,3-a][1,4]diazepin-6-yl)acetamido)octyl)amino)-2-oxoethoxy)-N-(2,6-dioxopiperidin-3-yl)-2-methyl-1H-benzo[d]imidazole-7-carboxamide] | ≤25% (≤25% for 0-25% of IKZF3 protein reduction) | ≤25% (≤25% for 0-25% of IKZF3 protein reduction) | ≤25% (≤25% for 0-25% of IKZF3 protein reduction) | ≤25% (≤25% for 0-25% of IKZF3 protein reduction) | ≤25% (≤25% for 0-25% of IKZF3 protein reduction) | ≤25% (≤25% for 0-25% of IKZF3 protein reduction) | ≤25% (≤25% for 0-25% of IKZF1 protein reduction) | ≤25% (≤25% for 0-25% of IKZF1 protein reduction) | ≤25% (≤25% for 0-25% of IKZF1 protein reduction) | – | – | – | – | – | – | – | – | BRD4 degradation (in words) (BRD4): can degrade BRD4
– | – | > 6.00 | COc1cc(C(=O)NC2CCC(=O)NC2=O)c2nc(C)[nH]c2c1 (centres unmarked) [Compound 30, N-(2,6-dioxopiperidin-3-yl)-6-methoxy-2-methyl-1H-benzo[d]imidazole-4-carboxamide] | – | – | – | – | – | – | – | – | – | ≤25% (≤25% for 0-25% of IKZF3 protein reduction) | ≤25% (≤25% for 0-25% of IKZF3 protein reduction) | ≤25% (≤25% for 0-25% of IKZF3 protein reduction) | ≤25% (≤25% for 0-25% of IKZF3 protein reduction) | ≤25% (≤25% for 0-25% of IKZF3 protein reduction) | ≤25% (≤25% for 0-25% of IKZF1 protein reduction) | ≤25% (≤25% for 0-25% of SALL4 protein reduction) | ≤25% (≤25% for 0-25% of CK1a protein reduction) | –
